What was measured:
corn = test: Test B pre/postemergence corn; format: in vivo, Zea mays
Outline: (§1)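 Herbicidal effect was estimated by eye on a ten-point control scale after plants spent twelve to sixteen days in a greenhouse following soil or foliar treatment. Foliar sprays targeted plants at one to four leaves; all doses were formulated in a non-phytotoxic solvent with surfactant.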

blackgrass = test: Test B pre/postemergence blackgrass; format: in vivo, Alopecurus myosuroides
Outline: as §1

soybean = test: Test B pre/postemergence soybean; format: in vivo, Glycine max; conditions: for Plant response rating, Soybean: scale of 0 to 10 where 0 is no effect and 10 is complete control
Outline: as §1

rape = test: Test B pre/postemergence rape; format: in vivo, Brassica napus; conditions: for Plant response rating, Rape: scale of 0 to 10 where 0 is no effect and 10 is complete control
Outline: as §1

surinam grass = test: Test B pre/postemergence surinam grass; format: in vivo, Brachiaria decumbens
Outline: as §1

bedstraw = test: Test B pre/postemergence bedstraw; format: in vivo, Galium aparine; conditions: Postemergence
Outline: as §1

morningglory = test: Test B pre/postemergence morningglory; format: in vivo, Ipomoea hederacea; conditions: for Plant response rating, Morningglory: scale of 0 to 10 where 0 is no effect and 10 is complete control
Outline: as §1

sugar beet = test: Test B pre/postemergence sugar beet; format: in vivo, Beta vulgaris; conditions: for Plant response rating, Sugarbeets: scale of 0 to 10 where 0 is no effect and 10 is complete control
Outline: as §1

rice = test: Test B flood test rice; format: in vivo, Oryza sativa
Outline: (§2)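 Plants were grown to the 2-leaf stage before treatment with test chemical, then held in a greenhouse for twelve to sixteen days. Injury was visually rated against untreated controls on a 0–10 scale, where 0 is no effect and 10 is complete control.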

pigweed = test: Test B pre/postemergence pigweed; format: in vivo, Amaranthus retroflexus
Outline: as §1

bamyardgrass = test: Test B flood test barnyardgrass; format: in vivo, Echinochloa crus-galli
Outline: as §2

velvetleaf = test: Test B pre/postemergence velvetleaf; format: in vivo, Abutilon theophrasti; conditions: for Plant response rating, Velvetleaf: scale of 0 to 10 where 0 is no effect and 10 is complete control
Outline: as §1

giant foxtail = test: Test B pre/postemergence giant foxtail; format: in vivo, Setaria faberii
Outline: as §1

duck salad = test: Test B flood test duck salad; format: in vivo, Heteranthera limosa
Outline: as §2

smallflower flatsedge = test: Test B flood test smallflower flatsedge; format: in vivo, Cyperus difformis
Outline: as §2

purple nutsedge = test: Test B pre/postemergence purple nutsedge; format: in vivo, Cyperus rotundus; conditions: for Plant response rating, Nutsedge: scale of 0 to 10 where 0 is no effect and 10 is complete control
Outline: as §1

[1] = Postemergence, Rate 250 g/ha, scale 0 to 10
[2] = Postemergence, Rate 500 g/ha, scale of 0 to 10 where 0 is no effect and 10 is complete control
[3] = Preemergence, Rate 62 g/ha, scale of 0 to 10 where 0 is no effect and 10 is complete control
[4] = Preemergence, Rate 125 g/ha, scale of 0 to 10 where 0 is no effect and 10 is complete control
[5] = Preemergence, Rate 250 g/ha, scale 0 to 10, 0 is no effect, 10 is complete control
[6] = Preemergence, Rate 500 g/ha, scale 0 to 10, 0 is no effect, 10 is complete control
[7] = Rate 62 g/ha, Postemergence, scale 0 to 10 (0 no effect, 10 complete control)
[8] = Rate 125 g/ha, Postemergence, scale 0 to 10, 0 is no effect, 10 is complete control
[9] = Rate 62 g/ha, flood test species, Pre-emergence, visual evaluation after twelve to sixteen days
[10] = Rate 125 g/ha, under heading Pre-emergence, flood test species, visual evaluation after twelve to sixteen days
[11] = Rate 250 g/ha, Pre-emergence (flood test species), scale 0 to 10, 0 is no effect, 10 is complete control
[12] = Rate 500 g/ha, Pre-emergence, flood test species, scale 0 to 10 (0 no effect, 10 complete control)

CC(C)N(C(=O)n1oc(=O)n(C(C)C(=O)N(C)C)c1=O)c1ccc(Cl)cc1 (stereo not shown) [Compound 480]
Corn plant response rating (corn; [1]): 0
Corn plant response rating (corn; [2]): 2
Plant response rating, Corn (corn; [3]): 0
Plant response rating, Corn (corn; [4]): 0
Corn plant response rating (corn; [5]): 0
Corn plant response rating (corn; [6]): 3
Corn plant response rating (corn; [7]): 0
Corn plant response rating (corn; [8]): 0
Blackgrass plant response rating (blackgrass; [1]): 3
Blackgrass plant response rating (blackgrass; [2]): 8
Plant response rating, Blackgrass (blackgrass; [3]): 3
Plant response rating, Blackgrass (blackgrass; [4]): 5
Blackgrass plant response rating (blackgrass; [5]): 8
Blackgrass plant response rating (blackgrass; [6]): 9
Blackgrass plant response rating (blackgrass; [7]): 0
Blackgrass plant response rating (blackgrass; [8]): 3
Soybean plant response rating (soybean; [1]): 3
Plant response rating, Soybean (soybean; Preemergence, Rate 62 g/ha): 0
Plant response rating, Soybean (soybean; Preemergence, Rate 125 g/ha): 0
Soybean plant response rating (soybean; [5]): 0
Soybean plant response rating (soybean; [6]): 1
Soybean plant response rating (soybean; [7]): 2
Soybean plant response rating (soybean; [8]): 3
Rape plant response rating (rape; [1]): 0
Plant response rating, Rape (rape; Preemergence, Rate 62 g/ha): 0
Plant response rating, Rape (rape; Preemergence, Rate 125 g/ha): 0
Rape plant response rating (rape; [5]): 0
Rape plant response rating (rape; [6]): 0
Rape plant response rating (rape; [7]): 0
Rape plant response rating (rape; [8]): 0
B. signalgrass plant response rating (surinam grass; Postemergence, Rate 250 g/ha, scale 0 to 10, 0 no effect, 10 complete control): 5
B. signalgrass plant response rating (surinam grass; [2]): 6
Plant response rating, B. signalgrass (surinam grass; [3]): 0
Plant response rating, B. signalgrass (surinam grass; [4]): 4
B. signalgrass plant response rating (surinam grass; [5]): 7
B. signalgrass plant response rating (surinam grass; [6]): 9
B. signalgrass plant response rating (surinam grass; [7]): 0
B. signalgrass plant response rating (surinam grass; [8]): 3
Bedstraw plant response rating (bedstraw; Rate 250 g/ha, scale 0 to 10): 0
Bedstraw plant response rating (bedstraw; Rate 500 g/ha, scale of 0 to 10 where 0 is no effect and 10 is complete control): 0
Bedstraw plant response rating (bedstraw; Rate 62 g/ha, scale 0 to 10 (0 no effect, 10 complete control)): 0
Bedstraw plant response rating (bedstraw; Rate 125 g/ha, scale 0 to 10, 0 is no effect, 10 is complete control): 0
Morningglory plant response rating (morningglory; [1]): 7
Plant response rating, Morningglory (morningglory; Preemergence, Rate 62 g/ha): 0
Plant response rating, Morningglory (morningglory; Preemergence, Rate 125 g/ha): 0
Morningglory plant response rating (morningglory; [5]): 0
Morningglory plant response rating (morningglory; [6]): 0
Morningglory plant response rating (morningglory; [7]): 2
Morningglory plant response rating (morningglory; [8]): 4
Sugarbeets plant response rating (sugar beet; [1]): 0
Plant response rating, Sugarbeets (sugar beet; Preemergence, Rate 62 g/ha): 0
Plant response rating, Sugarbeets (sugar beet; Preemergence, Rate 125 g/ha): 0
Sugarbeets plant response rating (sugar beet; [5]): 0
Sugarbeets plant response rating (sugar beet; [6]): 0
Sugarbeets plant response rating (sugar beet; [7]): 0
Sugarbeets plant response rating (sugar beet; [8]): 0
Plant response rating, Rice (0 to 10 scale, 0 is no effect, 10 is complete control) (rice; [9]): 0
Rice plant response rating (0 to 10 scale, 0 is no effect, 10 is complete control) (rice; [10]): 0
Rice plant response rating (rice; [11]): 0
Rice plant response rating (rice; [12]): 0
Redroot pigweed plant response rating (pigweed; [1]): 1
Plant response rating, Redroot pigweed (pigweed; [3]): 2
Redroot pigweed plant response rating (pigweed; [5]): 8
Redroot pigweed plant response rating (pigweed; [6]): 9
Redroot pigweed plant response rating (pigweed; [7]): 0
Redroot pigweed plant response rating (pigweed; [8]): 0
Plant response rating, Barnyardgrass (0 to 10 scale, 0 is no effect, 10 is complete control) (bamyardgrass; [9]): 0
Barnyardgrass plant response rating (0 to 10 scale, 0 is no effect, 10 is complete control) (bamyardgrass; [10]): 0
Barnyardgrass plant response rating (bamyardgrass; [11]): 0
Barnyardgrass plant response rating (bamyardgrass; [12]): 0
Velvetleaf plant response rating (velvetleaf; [1]): 0
Plant response rating, Velvetleaf (velvetleaf; Preemergence, Rate 62 g/ha): 0
Plant response rating, Velvetleaf (velvetleaf; Preemergence, Rate 125 g/ha): 0
Velvetleaf plant response rating (velvetleaf; [5]): 0
Velvetleaf plant response rating (velvetleaf; [6]): 0
Velvetleaf plant response rating (velvetleaf; [7]): 0
Velvetleaf plant response rating (velvetleaf; [8]): 0
Giant foxtail plant response rating (giant foxtail; [1]): 8
Giant foxtail plant response rating (giant foxtail; [2]): 8
Plant response rating, Giant foxtail (giant foxtail; [3]): 10
Plant response rating, Giant foxtail (giant foxtail; [4]): 10
Giant foxtail plant response rating (giant foxtail; [5]): 10
Giant foxtail plant response rating (giant foxtail; [6]): 10
Giant foxtail plant response rating (giant foxtail; [7]): 3
Giant foxtail plant response rating (giant foxtail; [8]): 5
Plant response rating, Ducksalad (0 to 10 scale, 0 is no effect, 10 is complete control) (duck salad; [9]): 0
Ducksalad plant response rating (0 to 10 scale, 0 is no effect, 10 is complete control) (duck salad; [10]): 0
Ducksalad plant response rating (duck salad; [11]): 0
Ducksalad plant response rating (duck salad; [12]): 0
Plant response rating, S. Flatsedge (0 to 10 scale, 0 is no effect, 10 is complete control) (smallflower flatsedge; [9]): 0
S. Flatsedge plant response rating (0 to 10 scale, 0 is no effect, 10 is complete control) (smallflower flatsedge; [10]): 0
S. Flatsedge plant response rating (smallflower flatsedge; [11]): 0
S. Flatsedge plant response rating (smallflower flatsedge; [12]): 0
Nutsedge plant response rating (purple nutsedge; [1]): 0
Plant response rating, Nutsedge (purple nutsedge; Preemergence, Rate 62 g/ha): 0
Plant response rating, Nutsedge (purple nutsedge; Preemergence, Rate 125 g/ha): 0
Nutsedge plant response rating (purple nutsedge; [5]): 0
Nutsedge plant response rating (purple nutsedge; [6]): 0
Nutsedge plant response rating (purple nutsedge; [7]): 0
Nutsedge plant response rating (purple nutsedge; [8]): 0

— US6737383B1, “Herbicidal oxadiazolidines” (priority 1999, dated 2004)
